Source: ChEMBL document CHEMBL1201862, “PubChem BioAssay data set” (2004)
The source made the active and inactive calls.

What was measured:
[1] = target: T1, Replicative DNA helicase DnaB (Mycobacterium tuberculosis, UniProt P9WMR3); experiment: DnaB intein splicing inhibitors, dose response, biochemical, cell-free fluorescence (AID 449749); format: functional
T1 sequence (P9WMR3 whole entry): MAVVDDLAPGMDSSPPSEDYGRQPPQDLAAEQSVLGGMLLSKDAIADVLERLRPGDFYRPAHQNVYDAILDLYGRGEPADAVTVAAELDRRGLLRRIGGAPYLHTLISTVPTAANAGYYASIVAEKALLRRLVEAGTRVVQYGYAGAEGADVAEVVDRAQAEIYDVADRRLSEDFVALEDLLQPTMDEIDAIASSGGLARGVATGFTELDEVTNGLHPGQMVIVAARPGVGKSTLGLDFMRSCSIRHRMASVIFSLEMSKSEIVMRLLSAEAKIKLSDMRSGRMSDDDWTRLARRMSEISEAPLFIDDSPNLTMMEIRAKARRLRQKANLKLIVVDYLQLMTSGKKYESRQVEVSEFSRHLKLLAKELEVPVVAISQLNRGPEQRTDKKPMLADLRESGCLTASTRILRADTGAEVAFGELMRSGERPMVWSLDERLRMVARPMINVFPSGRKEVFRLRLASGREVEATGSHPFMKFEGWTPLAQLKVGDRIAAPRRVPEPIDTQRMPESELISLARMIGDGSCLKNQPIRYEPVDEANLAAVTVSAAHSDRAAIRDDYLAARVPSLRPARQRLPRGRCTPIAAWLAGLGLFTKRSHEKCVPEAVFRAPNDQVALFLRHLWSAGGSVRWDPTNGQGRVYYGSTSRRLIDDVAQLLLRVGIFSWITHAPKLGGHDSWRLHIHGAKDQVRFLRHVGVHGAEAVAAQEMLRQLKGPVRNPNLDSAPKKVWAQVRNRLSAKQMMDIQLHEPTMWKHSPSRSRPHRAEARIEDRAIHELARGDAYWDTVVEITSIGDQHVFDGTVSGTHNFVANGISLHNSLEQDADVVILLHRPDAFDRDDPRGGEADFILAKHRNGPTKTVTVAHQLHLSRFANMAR

[2] = target: T2, Mitochondrial peptide methionine sulfoxide reductase (Bos taurus, UniProt P54149); experiment: Absorbance-based biochemical high throughput dose response assay for activators of Methionine sulfoxide reductase A (MsrA).; format: functional
T2 sequence (P54149 whole entry): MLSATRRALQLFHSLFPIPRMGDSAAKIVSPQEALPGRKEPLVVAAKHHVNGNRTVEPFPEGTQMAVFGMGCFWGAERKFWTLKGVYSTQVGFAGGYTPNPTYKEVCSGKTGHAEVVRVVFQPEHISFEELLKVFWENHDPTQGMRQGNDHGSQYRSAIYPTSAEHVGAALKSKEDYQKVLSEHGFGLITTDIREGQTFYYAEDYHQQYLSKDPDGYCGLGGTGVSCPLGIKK

[3] = target: T3, Sentrin-specific protease 8 (Homo sapiens, UniProt Q96LD8); format: functional;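 also: luminescence read-out of SENP8 inhibition, dose-response confirmation following an ultra-high-throughput screen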
T3 sequence (Q96LD8 whole entry): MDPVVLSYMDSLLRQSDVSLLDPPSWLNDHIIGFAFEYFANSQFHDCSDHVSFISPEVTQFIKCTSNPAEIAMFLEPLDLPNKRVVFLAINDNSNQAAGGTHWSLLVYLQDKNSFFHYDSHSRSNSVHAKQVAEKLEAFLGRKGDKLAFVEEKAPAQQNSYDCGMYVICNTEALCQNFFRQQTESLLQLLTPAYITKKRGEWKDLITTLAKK

[4] = target: T4, Tyrosyl-DNA phosphodiesterase 2 (Homo sapiens, UniProt O95551); experiment: human TDP2 enzyme inhibitors, dose response, biochemical, epi absorbance, IC50 (AID 743297)
T4 sequence (O95551 whole entry): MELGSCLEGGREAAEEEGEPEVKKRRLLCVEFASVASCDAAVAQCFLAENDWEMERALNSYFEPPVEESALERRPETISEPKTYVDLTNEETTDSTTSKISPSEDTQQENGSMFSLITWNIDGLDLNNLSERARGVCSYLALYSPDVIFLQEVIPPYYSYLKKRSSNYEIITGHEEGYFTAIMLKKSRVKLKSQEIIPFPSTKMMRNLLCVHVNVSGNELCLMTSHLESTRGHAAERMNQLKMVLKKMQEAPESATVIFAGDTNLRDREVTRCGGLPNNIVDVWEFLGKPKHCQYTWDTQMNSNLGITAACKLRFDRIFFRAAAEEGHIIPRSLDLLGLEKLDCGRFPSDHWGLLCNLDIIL

[5] = target: Delta-type opioid receptor (Homo sapiens, UniProt P41143); experiment: HTS Image-Based Screen for Antagonists of the DOR Receptor. [Related pubchem assays (depositor defined):AID1777, AID1785, AID1786, AID2133]; format: functional;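 also: U2OS cells expressing DOR stimulated with 100 nM SNC80 agonist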
Sequence of Delta-type opioid receptor (P41143 whole entry): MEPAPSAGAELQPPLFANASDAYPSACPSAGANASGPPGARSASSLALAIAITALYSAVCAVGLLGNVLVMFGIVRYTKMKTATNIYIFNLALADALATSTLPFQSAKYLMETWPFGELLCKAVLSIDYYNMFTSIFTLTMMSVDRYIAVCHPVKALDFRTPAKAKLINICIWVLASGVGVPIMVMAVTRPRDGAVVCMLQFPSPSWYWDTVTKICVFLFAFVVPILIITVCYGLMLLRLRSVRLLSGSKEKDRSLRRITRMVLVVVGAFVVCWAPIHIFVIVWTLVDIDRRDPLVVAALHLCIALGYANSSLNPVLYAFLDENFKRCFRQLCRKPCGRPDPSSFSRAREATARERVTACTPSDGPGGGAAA

[6] = target: Kappa-type opioid receptor (Homo sapiens, UniProt P41145); format: functional
Sequence of Kappa-type opioid receptor (P41145 whole entry): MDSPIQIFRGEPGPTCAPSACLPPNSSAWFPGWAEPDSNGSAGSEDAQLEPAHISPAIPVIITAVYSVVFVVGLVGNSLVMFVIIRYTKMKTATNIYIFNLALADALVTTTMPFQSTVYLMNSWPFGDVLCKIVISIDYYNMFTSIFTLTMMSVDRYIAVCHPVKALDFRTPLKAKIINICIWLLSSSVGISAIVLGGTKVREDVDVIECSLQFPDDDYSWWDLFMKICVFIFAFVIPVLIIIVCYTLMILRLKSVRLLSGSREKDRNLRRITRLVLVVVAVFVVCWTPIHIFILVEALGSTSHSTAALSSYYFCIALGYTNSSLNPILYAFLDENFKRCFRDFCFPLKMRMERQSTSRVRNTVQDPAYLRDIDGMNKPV

[7] = target: Tyrosine-protein kinase SYK (Homo sapiens, UniProt P43405); format: functional
LIM domain kinase 1 = LIM domain kinase 1 (Homo sapiens, UniProt P53667); experiment: Navigating the Kinome. Panel member name: LIMK1; format: functional
Sequence of LIM domain kinase 1 (P53667 whole entry, the tested form may be a part): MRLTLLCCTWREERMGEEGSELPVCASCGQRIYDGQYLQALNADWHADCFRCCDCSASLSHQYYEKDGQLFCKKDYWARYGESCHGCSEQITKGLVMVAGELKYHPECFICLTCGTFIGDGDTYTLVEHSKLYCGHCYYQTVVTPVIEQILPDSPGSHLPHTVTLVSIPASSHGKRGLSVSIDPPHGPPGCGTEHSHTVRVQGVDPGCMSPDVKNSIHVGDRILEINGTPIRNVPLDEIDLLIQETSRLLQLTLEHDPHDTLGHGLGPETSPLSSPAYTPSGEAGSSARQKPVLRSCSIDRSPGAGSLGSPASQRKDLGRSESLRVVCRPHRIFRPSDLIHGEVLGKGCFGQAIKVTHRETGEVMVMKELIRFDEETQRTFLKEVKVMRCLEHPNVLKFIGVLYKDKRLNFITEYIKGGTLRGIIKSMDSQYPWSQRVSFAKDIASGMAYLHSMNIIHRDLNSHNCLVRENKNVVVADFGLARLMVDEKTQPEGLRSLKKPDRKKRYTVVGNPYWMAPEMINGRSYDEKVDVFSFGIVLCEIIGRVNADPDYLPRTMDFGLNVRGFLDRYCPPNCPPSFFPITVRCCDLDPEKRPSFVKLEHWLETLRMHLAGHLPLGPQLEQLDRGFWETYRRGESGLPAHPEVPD

[8] = target: Tyrosine-protein kinase Blk (Homo sapiens, UniProt P51451); format: functional;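 also: obtained as one member of a kinome-wide kinase assay panel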
Sequence of Tyrosine-protein kinase Blk (P51451 whole entry): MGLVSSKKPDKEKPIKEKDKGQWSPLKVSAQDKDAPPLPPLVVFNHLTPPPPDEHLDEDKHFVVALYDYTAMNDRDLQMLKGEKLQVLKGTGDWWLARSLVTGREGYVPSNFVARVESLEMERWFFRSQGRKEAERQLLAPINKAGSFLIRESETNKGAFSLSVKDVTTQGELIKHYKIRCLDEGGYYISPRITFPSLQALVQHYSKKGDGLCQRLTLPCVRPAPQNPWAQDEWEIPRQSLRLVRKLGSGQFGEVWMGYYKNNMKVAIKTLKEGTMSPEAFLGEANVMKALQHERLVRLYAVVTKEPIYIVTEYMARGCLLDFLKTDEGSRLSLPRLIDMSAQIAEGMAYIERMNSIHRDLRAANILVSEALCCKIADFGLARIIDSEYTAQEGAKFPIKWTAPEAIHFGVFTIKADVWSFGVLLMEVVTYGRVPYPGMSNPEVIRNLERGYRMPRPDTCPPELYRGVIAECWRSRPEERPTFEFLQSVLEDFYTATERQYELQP

[9] = target: Mitogen-activated protein kinase kinase kinase kinase 2 (Homo sapiens, UniProt Q12851); format: functional;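 also: measured as one member of a kinome-wide kinase panel, with MAP4K2 as the panel entry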
Sequence of Mitogen-activated protein kinase kinase kinase kinase 2 (Q12851 whole entry): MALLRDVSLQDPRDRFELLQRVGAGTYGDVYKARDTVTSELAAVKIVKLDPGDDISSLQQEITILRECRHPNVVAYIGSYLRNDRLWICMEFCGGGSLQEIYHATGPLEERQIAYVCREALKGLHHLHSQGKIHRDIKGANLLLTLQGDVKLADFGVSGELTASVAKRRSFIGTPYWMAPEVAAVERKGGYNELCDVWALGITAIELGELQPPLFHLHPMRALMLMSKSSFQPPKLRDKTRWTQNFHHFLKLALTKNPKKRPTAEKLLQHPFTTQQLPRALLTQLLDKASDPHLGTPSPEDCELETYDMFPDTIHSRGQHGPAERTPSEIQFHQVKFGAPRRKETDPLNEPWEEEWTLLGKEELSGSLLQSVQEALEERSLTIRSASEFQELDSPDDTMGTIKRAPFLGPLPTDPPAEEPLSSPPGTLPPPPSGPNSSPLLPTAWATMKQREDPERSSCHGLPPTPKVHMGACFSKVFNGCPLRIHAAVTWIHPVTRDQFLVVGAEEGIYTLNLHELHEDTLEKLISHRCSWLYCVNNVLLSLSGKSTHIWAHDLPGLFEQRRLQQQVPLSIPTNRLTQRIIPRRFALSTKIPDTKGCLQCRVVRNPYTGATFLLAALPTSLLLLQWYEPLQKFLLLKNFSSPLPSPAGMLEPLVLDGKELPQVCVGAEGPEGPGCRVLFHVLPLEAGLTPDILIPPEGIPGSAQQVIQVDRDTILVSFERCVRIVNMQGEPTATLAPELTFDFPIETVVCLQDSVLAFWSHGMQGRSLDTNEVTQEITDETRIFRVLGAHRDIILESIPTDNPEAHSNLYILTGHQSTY

Streptokinase A = target: T5, Streptokinase A (Streptococcus pyogenes serotype M1, UniProt P10520); experiment: S. pyogenes streptokinase expression inhibitors, potency, dose response, plasminogen activation absorbance, OD405 (AID 1914); format: functional, Streptococcus pyogenes M1 GAS;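 also: secreted streptokinase activity via plasminogen activation per viability signal from cell pellet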
T5 sequence (P10520 whole entry): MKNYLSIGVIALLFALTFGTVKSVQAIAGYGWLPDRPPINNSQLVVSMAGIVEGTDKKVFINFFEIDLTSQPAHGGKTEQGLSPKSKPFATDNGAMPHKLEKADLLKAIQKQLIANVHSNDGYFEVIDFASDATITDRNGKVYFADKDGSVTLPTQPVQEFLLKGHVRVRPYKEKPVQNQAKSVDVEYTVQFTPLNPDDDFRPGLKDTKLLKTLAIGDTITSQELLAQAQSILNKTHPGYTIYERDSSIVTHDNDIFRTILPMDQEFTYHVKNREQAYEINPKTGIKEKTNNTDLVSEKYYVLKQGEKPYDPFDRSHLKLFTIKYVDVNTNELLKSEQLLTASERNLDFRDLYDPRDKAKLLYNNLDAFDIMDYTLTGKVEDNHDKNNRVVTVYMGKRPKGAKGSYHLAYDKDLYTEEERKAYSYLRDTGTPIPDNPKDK

[10] = growth suppression of PTEN-null colon cells, dose response, cell-based, HCT116 PTEN knockout (AID 1047); format: functional;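 also: HCT116 colon tumor cells with PTEN knocked out; cells exposed to compound for 60 hours before readout; potency for loss of cell viability measured by luminescence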
[11] = growth suppression of beta-catenin-knockout colon cells, dose response, cell-based, HCT116, human colon tumor (AID 1045); format: functional;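 also: HCT116 colon tumor cells with beta catenin knocked out; cells exposed to compound for 60 hours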
[12] = target: Hepatocyte nuclear factor 4-alpha (Homo sapiens, UniProt P41235); format: functional, cell-based;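 also: biochemical luminescence-based dose-response counterscreen measuring inhibition of HNF4 dimerization, run alongside a screen for blockers of ABHD5–perilipin-5 interaction; split luciferase complementation of HNF4 fusion proteins in cell lysate measuring dimerization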
Sequence of Hepatocyte nuclear factor 4-alpha (P41235 whole entry, the tested form may be a part): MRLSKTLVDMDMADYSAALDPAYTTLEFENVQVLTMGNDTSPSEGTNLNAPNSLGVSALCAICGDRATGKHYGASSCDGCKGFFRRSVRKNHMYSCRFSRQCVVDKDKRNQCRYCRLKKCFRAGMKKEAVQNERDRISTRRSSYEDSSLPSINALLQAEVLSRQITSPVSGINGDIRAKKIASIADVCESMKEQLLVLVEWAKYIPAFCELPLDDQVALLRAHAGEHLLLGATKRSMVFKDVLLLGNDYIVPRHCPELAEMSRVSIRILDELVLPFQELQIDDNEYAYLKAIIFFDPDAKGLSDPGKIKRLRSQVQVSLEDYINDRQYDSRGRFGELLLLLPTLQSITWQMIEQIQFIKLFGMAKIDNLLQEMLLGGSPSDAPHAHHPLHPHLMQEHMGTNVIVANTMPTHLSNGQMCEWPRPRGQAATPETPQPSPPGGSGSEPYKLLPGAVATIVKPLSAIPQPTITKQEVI

[13] = Artemis endonuclease inhibitor potency, dose response, biochemical, fluorescence intensity (AID 720701); format: functional;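 also: Artemis endonuclease enzyme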
[14] = Luminescence-based cell-based high throughput dose response assay to identify activators of the DAF-12 from the parasite S. stercoralis (ssDAF-12).; format: functional
[15] = LGR2 antagonists, dose response, cell-based, HEK293, CRE-luciferase reporter, cherry pick, set 2 (AID 743343); format: functional;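 also: transfected cells were stimulated with diluted bursicon conditioned medium after compound addition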

O=C1C(Cl)=C(NCc2cccnc2)C(=O)c2ccccc21
AC50 [1]: 4.75 µM (active)
EC50 [2]: > 104 µM (inactive)

Nc1ccc(Br)c2cccnc12
IC50 [3]: 10 µM (active)
IC50 [4]: 75.5 µM (inactive)

Cc1ccc(Nc2cc(C)nn2-c2nc(C)cc(O)n2)cc1
IC50 [5]: > 32 µM (inactive)
IC50 [6]: 0.747 µM (active)
AC50 [1]: 13.6 µM (active)

O=C1NC(=S)SC1=C1C(=O)Nc2ccc(Br)cc21
Ki [7]: 0.794 µM (active)
Ki (LIM domain kinase 1): 3.98 µM (active)
Ki [8]: > 1.58 µM (inactive)
Ki [9]: > 6.31 µM (inactive)

Cc1ccc(C(=O)c2c(C)oc3c2C(=O)C(=O)c2ccccc2-3)cc1
EC50 (Streptokinase A): > 150 µM (not active)
EC50 [10]: 3.11 µM (active)
EC50 [11]: 2.66 µM (active)
IC50 [3]: 7.82 µM (active)
IC50 [12]: 5.42 µM (active)
IC50 [13]: 2.2 µM (active)

O=C1C(O)=C/C(=N\c2ccccc2O)c2ccccc21
EC50 (Streptokinase A): 132 µM (active)
IC50 [3]: 5.23 µM (active)
AC50 [1]: 27.4 µM (active)
EC50 [2]: > 104 µM (inactive)
IC50 [4]: 37.7 µM (inactive)

Cc1cnc(NC(=O)c2sc3ccccc3c2Cl)s1
IC50 [3]: 2.56 µM (active)
IC50 [14]: > 67.5 µM (inactive)
AC50 [15]: 3.07 µM (active)

CN(C)c1ncc(C2=C(Cl)C(=O)C(N3CCCC3)=C(Cl)C2=O)s1
EC50 (Streptokinase A): > 150 µM (not active)
EC50 [10]: 5.41 µM (active)
EC50 [11]: 6.06 µM (active)
AC50 [1]: > 380 µM (inactive)
